Columns and labels:
[1] = system: Leptosphaeria nodorum (LEPTNO); assay: In vitro fungitoxicity (growth inhibition) against Leptosphaeria nodorum in copper-minus and copper-plus medium; type: cell-based; settings: 0.05 μg/mL, 72 h at 25° C.; for LEPTNO % Inhn. Plus Copper Observed: copper-plus medium (CuCl2, 10 μM); for inhibition of growth at 0.05 µg/mL: Parastagonospora nodorum, read-out: LEPTNO % Inhn. Minus Copper Observed
Protocol: In vitro fungitoxicity assays against Leptosphaeria nodorum (LEPTNO) were conducted using the liquid growth medium described by Coursen and Sisler (American Journal of Botany 1960, 47, 541-549) except that copper micronutrient, normally included as CuSO4, was omitted. The medium, termed “copper-minus”, was prepared by dissolving 10 g glucose, 1.5 g K2HPO4, 2 g KH2PO4 and 1 g (NH4)2SO4 in 1 liter of deionized water and treating the solution with 0.5 g Chelex 100 resin (Bio-Rad Analytical grade, 50-100 mesh, sodium form, cat #142-2822) by stirring at room temperature for 1 h. MgSO4.7H2O (0.5 g) was added, and stirring was continued for a further hour. Trace elements (minus CuSO4), and vitamins described by Coursen and Sisler were added from concentrated stock solutions and the entire medium was sterilized by filtration. Medium containing copper was prepared by adding CuCl2.2H2O to the copper-minus medium at 20 μM. Test compounds were dissolved in dimethylsulfoxide (DMSO) then dilutions in copper-minus and copper-plus growth media were prepared as 100 μL aliquots in flat-bottomed 96-well microtiter plates.
LEPTNO was grown on potato dextrose agar in 9 cm diameter petri dishes for 7 days. Sterile deionized water (20 mL) was added to a culture plate and spores suspended by scraping the surface gently with a sterile plastic loop. The resulting suspension was filtered through a double layer of sterile cheesecloth. Filtered spore suspension (5 mL) was centrifuged in a bench centrifuge at 2000 rpm for 2 min. The resulting spore pellet was resuspended in 10 mL sterile deionized water (which had been treated with Chelex 100 resin using 0.5 g resin per liter of water by stirring at room temperature for 1 h), and recentrifuged. The spores were resuspended in copper-minus medium, and the suspension adjusted to 2×10^5 spores per mL. Microtiter plates were inoculated with 100 μL of this spore suspension and the plates incubated at 25° C. for 72 h before assessing fungal growth by measuring light scattering in a NepheloStar plate reader. Growth inhibition was determined by comparing growth in the presence of test compound with growth in control wells lacking test compound.
Results for growth inhibition by test compounds in copper-plus medium (“% Inhn Plus Copper Observed”) were compared with predicted values (“% Inhn Plus Copper Predicted”) that were calculated using the formula set forth by S. R. Colby in Weeds 1967, 15, 20-22 based on results obtained for the same compounds in copper-minus medium (“% Inhn Minus Copper Observed”) and the inhibition attributed to copper chloride alone, as determined by comparing growth in copper-minus and copper-plus media without any test compound across experiments. Results illustrate that hydrazones and copper produce a synergistic fungitoxic effect towards LEPTNO.

[2] = system: Phytophthora infestans; type: in vivo, Phytophthora infestans on tomato plant; settings: 50 ppm hydrazone with 50 μM CuCl2.2H2O; applied 24 h before inoculation; assessed 7 days after inoculation; tomato
[3] = system: Phytophthora capsici; assay: In vitro fungitoxicity (growth inhibition) against Phytophthora capsici in copper-minus AS and copper-plus AS medium; type: cell-based; settings: CuCl2, 50 uM; no test compound; across experiments
Protocol: In vitro fungitoxicity assays against Phytophthora capsici were conducted using the asparagine-sucrose (AS) medium described in Canadian Journal of Microbiology 1961, 7, 15-25, except that copper micronutrient, normally included as CuSO4, was omitted. The medium, termed “copper-minus AS”, was prepared by dissolving 2 g asparagine, 0.43 g KH2PO4, 0.3 g K2HPO4, 0.4 mL of a 0.5 mg/mL thiamine-HCl solution and 15 g sucrose in 1 liter of deionized water and treating the solution with 0.5 g Chelex 100 resin (Bio-Rad Analytical grade, 50-100 mesh, sodium form, cat #142-2822) by stirring at room temperature for 1 h. The pH was adjusted to 6.4, then MgSO4.7H2O (100 μg/mL), FeSO4.7H2O (1 μg/mL), CaCl2 (50 μg/mL), ZnSO4.7H2O (1 μg/mL), NaMoO4.2H2O (0.2 μg/mL) and MnCl2.4H2O (0.2 μg/mL) were added and the entire medium was sterilized by filtration. […]
Phytophthora capsici was grown on petri plates, 9 cm in diameter, containing 15 mL V-8 agar, pH 7.0, containing 200 mL V-8 juice, 4 g CaCO3, and 20 g agar per liter. […] Microtiter plates were inoculated with 100 μL of spore suspension and incubated at 25° C. for 48 h before assessing fungal growth by measuring light scattering in a NepheloStar plate reader. Growth inhibition was determined by comparing growth in the presence of test compound with growth in control wells lacking test compound. […]

[4] = system: Staphylococcus aureus, Escherichia coli, Aspergillus niger and A. flavus; settings: literature report (Proc. Natl. Acad. Sci. India 1991); cited from earlier work

| Compound | TLB % Control [2] [%] | LEPTNO % Inhn. Plus Copper Observed [1] [%] | inhibition of growth at 0.05 µg/mL ([1]; copper-minus medium) [%] | also measured |
| --- | --- | --- | --- | --- |
| O=C(N/N=C/c1cc(Cl)ccc1O)c1ccc(C(F)(F)F)cc1 [Compound 33] | – | – | – | LEPTNO % Inhn. Minus Copper Observed ([1]; copper-minus medium): 20.7% |
| O=C(N/N=C/c1cc(Cl)cc(Cl)c1O)c1cc(Cl)ccc1Br [Compound 36] | 70.9 | 92.5 | 0 | – |
| O=C(N/N=C/c1cc(Br)cc(Br)c1O)c1cc(Cl)ccc1Br [Compound 37] | 68.4 | 97.9 | 34.5 | – |
| O.O.[Cl][Cu][Cl] [CuCl2, CuCl2.2H2O, reference compound] | – | – | – | % Inhn attributed to copper chloride alone (Phytophthora capsici) [3]: 4.5 ± 7.9% |
| O=C(NN=Cc1ccccc1O)c1ccccc1O [o-hydroxybenzaldehyde-N-salicyloylhydrazone] | – | – | – | Antimicrobial activity [4]: Antimicrobial activity has been reported |
